Measurements reported in article PMC3257202, “Xylan oligosaccharides and cellobiohydrolase I (TrCel7A) interaction and effect on activity” (Biotechnology for Biofuels, 2011).

How the values were obtained:
TrCel7A = target: T1, TrCel7A (Trichoderma reesei, UniProt P62694); assay: isothermal titration calorimetry; conditions: 30°C; binding constant on a molar concentration scale (unit not given)
T1 construct: gene cbh1; full-length secreted enzyme (GH7 catalytic domain, glycosylated linker, family 1 CBM), 17-residue signal peptide removed, 52 kDa; recombinant from Aspergillus oryzae, purified
T1 sequence (P62694 18-513): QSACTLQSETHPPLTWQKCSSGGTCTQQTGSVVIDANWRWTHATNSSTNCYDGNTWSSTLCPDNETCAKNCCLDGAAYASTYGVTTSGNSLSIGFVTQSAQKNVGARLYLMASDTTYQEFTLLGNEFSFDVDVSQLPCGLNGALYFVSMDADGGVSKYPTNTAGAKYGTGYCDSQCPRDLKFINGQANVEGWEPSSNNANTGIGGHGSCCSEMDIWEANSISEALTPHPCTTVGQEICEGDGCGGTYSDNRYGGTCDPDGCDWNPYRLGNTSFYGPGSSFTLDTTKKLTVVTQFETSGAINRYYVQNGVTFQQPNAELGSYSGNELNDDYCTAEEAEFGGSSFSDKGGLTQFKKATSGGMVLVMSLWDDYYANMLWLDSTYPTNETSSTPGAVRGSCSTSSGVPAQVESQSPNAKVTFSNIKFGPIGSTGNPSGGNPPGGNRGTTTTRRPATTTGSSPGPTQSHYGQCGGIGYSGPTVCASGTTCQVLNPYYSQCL
Description: isothermal titration calorimetry on TrCel7A

TrCel7A core = target: T2, TrCel7A core (Trichoderma reesei, UniProt P62694); assay: isothermal titration calorimetry; conditions: 30°C, binding constant on a molar concentration scale (unit not given)
T2 construct: gene cbh1; GH7 catalytic domain only, first 436 residues after the 17-residue signal peptide; linker and C-terminal family 1 CBM removed; recombinant from Aspergillus oryzae, purified
T2 sequence (P62694 18-453): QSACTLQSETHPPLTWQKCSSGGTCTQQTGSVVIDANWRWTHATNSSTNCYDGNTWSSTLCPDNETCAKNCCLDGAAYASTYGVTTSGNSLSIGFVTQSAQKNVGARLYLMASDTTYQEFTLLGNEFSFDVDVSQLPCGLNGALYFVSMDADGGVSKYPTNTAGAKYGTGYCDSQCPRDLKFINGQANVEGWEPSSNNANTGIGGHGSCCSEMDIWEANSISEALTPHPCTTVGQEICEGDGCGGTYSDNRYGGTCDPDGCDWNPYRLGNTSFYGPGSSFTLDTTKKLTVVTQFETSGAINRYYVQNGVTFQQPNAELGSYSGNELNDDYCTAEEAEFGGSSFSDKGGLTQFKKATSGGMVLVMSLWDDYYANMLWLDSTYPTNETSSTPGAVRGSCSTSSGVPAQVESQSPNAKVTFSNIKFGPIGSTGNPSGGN
Description: isothermal titration calorimetry on TrCel7A core

Row | TrCel7A (K) (TrCel7A) | TrCel7A core (K) (TrCel7A core) | TrCel7A core (K) (TrCel7A core; compound identity contradictory in print (name hexaose, formula (xyl)5)) | Compound
1 | 5.76 × 10^3 | 7.43 × 10^3 |  | OC1OC[C@@H](O[C@@H]2OC[C@@H](O[C@@H]3OC[C@@H](O[C@@H]4OC[C@@H](O[C@@H]5OC[C@@H](O[C@@H]6OC[C@@H](O[C@@H]7OC[C@@H](O)[C@H](O)[C@H]7O)[C@H](O)[C@H]6O)[C@H](O)[C@H]5O)[C@H](O)[C@H]4O)[C@H](O)[C@H]3O)[C@H](O)[C@H]2O)[C@H](O)[C@H]1O (some centres unmarked) [Xyloheptaose]
2 |  | 2.97 × 10^3 |  | OC1OC[C@@H](O[C@@H]2OC[C@@H](O[C@@H]3OC[C@@H](O[C@@H]4OC[C@@H](O)[C@H](O)[C@H]4O)[C@H](O)[C@H]3O)[C@H](O)[C@H]2O)[C@H](O)[C@H]1O (some centres unmarked) [Xylotetraose]
3 |  | > 1.0 × 10^3 |  | OC1OC[C@@H](O[C@@H]2OC[C@@H](O[C@@H]3OC[C@@H](O)[C@H](O)[C@H]3O)[C@H](O)[C@H]2O)[C@H](O)[C@H]1O (some centres unmarked) [Xylotriose]
4 |  |  | 3.44 × 10^3 | Xylohexaose (xyl)5
